Reference: the NIST ThermoML archive (doi:10.1021/je050031f)
± gives the expanded uncertainty stated by the source.

Columns and labels:
[1] = xn = mol fraction of the nth substance listed; conditions: 308.15 K, 100.8 kPa, Liquid
[2] = refractive index (Na D-line) (dimensionless); xn = mol fraction of the nth substance listed; conditions: 100.8 kPa, Liquid, Standard Abbe refractometry

CC1CCCCC1 [methylcyclohexane] + CCO
[1]
Conditions | mass density [kg/m3] | viscosity [mPa·s]
x2 = 0.25 | 756.4 ± 0.3 | 0.593 ± 0.008
x2 = 0.3 | 756.8 ± 0.3 | 0.602 ± 0.008
x2 = 0.35 | 757.2 ± 0.3 | 0.612 ± 0.008
x2 = 0.4 | 757.8 ± 0.3 | 0.623 ± 0.008
x2 = 0.45 | 758.4 ± 0.3 | 0.635 ± 0.009
x2 = 0.5 | 759.1 ± 0.3 | 0.65 ± 0.009
x2 = 0.55 | 759.9 ± 0.3 | 0.666 ± 0.009
x2 = 0.6 | 760.8 ± 0.3 | 0.683 ± 0.009
x2 = 0.65 | 761.8 ± 0.3 | 0.7 ± 0.009
x2 = 0.7 | 763.1 ± 0.3 | 0.72 ± 0.009
x2 = 0.75 | 764.5 ± 0.3 | 0.74 ± 0.01
x2 = 0.8 | 766 ± 0.3 | 0.762 ± 0.01
x2 = 0.85 | 767.9 ± 0.3 | 0.79 ± 0.01
x2 = 0.9 | 770.2 ± 0.3 | 0.828 ± 0.011
x2 = 0.95 | 773 ± 0.3 | 0.867 ± 0.011

refractive index, [2]
Conditions | 288.15 K | 298.15 K | 308.15 K
x2 = 0 | 1.42578 ± 0.00033 | 1.42053 ± 0.00033 | 1.41537 ± 0.00033
x2 = 0.05 | 1.42405 ± 0.00033 | 1.41871 ± 0.00033 | 1.41358 ± 0.00033
x2 = 0.1 | 1.42223 ± 0.00032 | 1.4169 ± 0.00032 | 1.41176 ± 0.00032
x2 = 0.15 | 1.42037 ± 0.00032 | 1.41505 ± 0.00032 | 1.40993 ± 0.00032
x2 = 0.2 | 1.41843 ± 0.00032 | 1.41313 ± 0.00032 | 1.40802 ± 0.00032
x2 = 0.25 | 1.41639 ± 0.00032 | 1.41112 ± 0.00032 | 1.40603 ± 0.00032
x2 = 0.3 | 1.41426 ± 0.00032 | 1.40902 ± 0.00032 | 1.40396 ± 0.00032
x2 = 0.35 | 1.41199 ± 0.00032 | 1.40679 ± 0.00032 | 1.40175 ± 0.00032
x2 = 0.4 | 1.4096 ± 0.00032 | 1.40442 ± 0.00032 | 1.39942 ± 0.00032
x2 = 0.45 | 1.40706 ± 0.00032 | 1.40192 ± 0.00032 | 1.39695 ± 0.00032
x2 = 0.5 | 1.40437 ± 0.00032 | 1.39927 ± 0.00032 | 1.39433 ± 0.00032
x2 = 0.55 | 1.4015 ± 0.00032 | 1.39644 ± 0.00032 | 1.39153 ± 0.00032
x2 = 0.6 | 1.39844 ± 0.00032 | 1.39343 ± 0.00032 | 1.38856 ± 0.00032
x2 = 0.65 | 1.39516 ± 0.00032 | 1.3902 ± 0.00032 | 1.38538 ± 0.00032
x2 = 0.7 | 1.39166 ± 0.00032 | 1.38674 ± 0.00032 | 1.38197 ± 0.00032
x2 = 0.75 | 1.38785 ± 0.00032 | 1.38298 ± 0.00032 | 1.37827 ± 0.00032
x2 = 0.8 | 1.38377 ± 0.00031 | 1.37896 ± 0.00031 | 1.37432 ± 0.00031
x2 = 0.85 | 1.37933 ± 0.00031 | 1.37459 ± 0.00031 | 1.37001 ± 0.00031
x2 = 0.9 | 1.37449 ± 0.00031 | 1.36985 ± 0.00031 | 1.36536 ± 0.00031
x2 = 0.95 | 1.36921 ± 0.00031 | 1.36474 ± 0.00031 | 1.36042 ± 0.00031
